Results from patent US8252940B2, “5-substituted-2-imino-thiazolidinone compounds and their use as inhibitors of bacterial infection” (University of Washington, priority 2008, dated 2012).

Columns and labels:
[1] = test system: type III secretion in S. typhimurium; experiment: microbe, parasite or virus in culture; assay type: cell-based, Salmonella enterica serovar Typhimurium; conditions: for inhibition at 33 µM / inhibition at 330 µM / inhibition at 3.3 µM: Salmonella enterica, TYPHIMURIUM, read-out: % inhibition of SipA secretion
[2] = test system: S. typhimurium T3S secreted substrates; assay type: cell-based; conditions: Western blot
[3] = test system: Ysc T3S system; experiment: Secretion profile of Y. enterocolitica Ysc T3S system; assay type: cell-based, Yersinia enterocolitica; conditions: 380 μM
[4] = test system: Ysa T3S system; experiment: Secretion profile of Y. enterocolitica Ysa T3S system; assay type: cell-based, Yersinia enterocolitica; conditions: 380 μM
[5] = biological target: T3S needle complex (NC) (Salmonella typhimurium, UniProt P35672); assay type: cell-based, S. typhimurium
[6] = test system: InvG, PrgH and PrgK; experiment: Abundance and membrane localization of NC proteins (Western blot of membrane fractions); assay type: cell-based, S. typhimurium; conditions: 380 μM
Procedure: FIG. 3A is an image of a Western blot of type III secretion NC proteins isolated from S. typhimurium grown in the presence (+) or absence (−) of 380 μM of Compound 1. FIG. 3B is an image of a Western blot of membrane fractions of S. typhimurium grown in the presence (+) or absence (−) of 380 μM of Compound 1. In the presence of Compound 1, InvG cellular levels and bacterial membrane localization were unaltered (FIGS. 3A and 3B). Similarly, protein levels and localization of the other NC proteins PrgH and PrgK were unchanged.

[7] = test system: flagellar T3S system; experiment: Flagellar function: motility assay and flagellin secretion; assay type: cell-based, S. typhimurium; conditions: 380 μM
[8] = test system: P. aeruginosa twitching motility (T4P); experiment: Twitching assay; assay type: cell-based, Pseudomonas aeruginosa; conditions: 380 μM in motility plates
[9] = test system: Francisella virulence protein secretion; assay type: cell-based, Francisella novicida; conditions: 380 μM
[10] = test system: Pseudomonas syringae pv tomato DC3000; experiment: Hypersensitivity response (HR) in non-host tobacco plants; assay type: in vivo; conditions: 380 μM, overlapping infiltration, compared with solvent alone; 24 hours
From the text: Inhibition of T3S-dependent pathogenesis of the plant pathogen, Pseudomonas syringae pv tomato DC3000 for tobacco. The bacterial plant pathogen Pseudomonas syringae pv tomato DC3000 requires T3S of virulence determinants to cause disease. The hypersensitivity response (HR) elicited by P. syringae in non-host tobacco plants depends upon a functional T3S system, representing an established virulence model for this pathogen. To determine the effect of Compound 1 on P. syringae pathogenesis for plants, overlapping infiltrations of P. syringae and Compound 1 were performed. P. syringae was inoculated on non-host tobacco plants and monitored for HR. Bacterial inoculations partially overlapped inoculations of either 380 μM of Compound 1 or the solvent DMSO. HR was measured by tissue collapse of plants cells in the overlapping region.
Therefore, these compounds, which blocked disease in an important model of plant pathogenesis, may have utility in preventing disease of plants.

[11] = test system: bone marrow macrophages; experiment: Cytotoxicity of compound added directly to macrophages (LDH release)
[12] = test system: T2-dependent secretion of elastase; experiment: Elastolytic activity assay of culture supernatants (elastin Congo red); conditions: 380 μM; 18 hour culture (PAO1-C); untreated PAO1 1.881, pilD 0.098
[13] = test system: invF, prgH, and sipA genes; experiment: Transcriptional reporter fusions of T3S genes to lacZ, β-Galactosidase activity; conditions: cultures grown in presence vs absence of compound
[14] = test system: bone marrow macrophages infected with S. typhimurium; experiment: S. typhimurium T3-dependent cytotoxicity of bone marrow macrophages (LDH release); conditions: bacteria grown in presence of compound; multiplicity of 40; 40% without compound

Chain of T3S needle complex (NC) (P35672 25-562, one chain of several): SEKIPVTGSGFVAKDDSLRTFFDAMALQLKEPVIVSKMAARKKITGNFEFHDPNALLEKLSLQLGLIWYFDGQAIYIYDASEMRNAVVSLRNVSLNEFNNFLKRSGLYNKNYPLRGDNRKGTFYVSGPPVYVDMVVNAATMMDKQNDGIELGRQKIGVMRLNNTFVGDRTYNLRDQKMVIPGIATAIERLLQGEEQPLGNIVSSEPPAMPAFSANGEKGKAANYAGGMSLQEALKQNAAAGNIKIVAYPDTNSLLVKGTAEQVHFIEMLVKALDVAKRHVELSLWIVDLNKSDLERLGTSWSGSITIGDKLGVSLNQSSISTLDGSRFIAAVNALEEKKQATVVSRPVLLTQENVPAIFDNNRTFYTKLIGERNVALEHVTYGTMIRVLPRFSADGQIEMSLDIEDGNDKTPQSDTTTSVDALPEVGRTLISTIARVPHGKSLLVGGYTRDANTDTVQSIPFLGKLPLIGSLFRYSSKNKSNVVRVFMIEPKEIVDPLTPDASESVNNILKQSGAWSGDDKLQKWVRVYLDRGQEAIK

In the case of `COc1cc(/C=C2\S/C(=N\c3ccccc3)N(c3ccccc3)C2=O)cc(OC)c1O` [Compound 1], the “inhibition of known T3S substrates” value ([1]; 380 uM) is reported as “complete inhibition”, the “% Secretion” value ([1]; type III secretion in S. typhimurium, SipA secretion by Western blot) is reported as 0 ± 0% and the “secretion of SipA and SspH1 expressed from the T3S-independent lac promoter” value [2] is reported as “Neither of these proteins was secreted”. For the same compound, the “amount of T3 secreted proteins SipA, B, and C” value ([2]; cultures grown in presence of compound) was “marked decrease”, the “Yop proteins in culture supernatants” value [3] was “absent” and the “Ysp proteins in culture supernatants” value [4] was “absent”. For the same compound, the “NC proteins in isolated needle complexes” value ([5]; 380 μM, Western blot) was “overall reduction”, the “NC number on the cell surface” value ([5]; electron micrographs of osmotically shocked cells) was “marked reduction” and the “InvG cellular levels and bacterial membrane localization” value [6] was “unaltered”. For the same compound, the “protein levels and localization of PrgH and PrgK” value [6] was “unchanged”, the S. typhimurium motility [7] was “unaffected” and the secretion of flagellin [7] was “unaltered”. For the same compound, the “P. aeruginosa twitching motility” value [8] was “significantly reduced”, the “secretion of the known Francisella virulence proteins” value [9] was “inhibited secretion” and the “ability of P. syringae to elicit HR” value [10] was “reduced ability to elicit HR”. For the same compound, the “lysis of macrophages exposed to compound alone” value [11] was “did not lyse”, the “OD495, elastolytic activity of culture supernatant” value [12] was 0.437 and the “β-Galactosidase activity of invF, prgH, sipA lacZ fusions” value [13] was “similar”. For the same compound, the “caspase-1 dependent cell death of macrophages” value [14] was 0.5%.
Compound `COc1cc(/C=C2\S/C(=N\c3ccccc3)N(C(CCCNC(=N)N)C(=O)N3Cc4ccccc4C[C@H]3C(N)=O)C2=O)cc(OC)c1O` (stereo partly drawn) [compound 88, (S)-2-(5-guanidino-2-((2Z,5Z)-5-(4-hydroxy-3,5-dimethoxybenzylidene)-4-oxo-2-(phenylimino)thiazolidin-3-yl)pentanoyl)-1,2,3,4-tetrahydroisoquinoline-3-carboxamide] has an inhibition at 33 µM [1] of 0% and an inhibition at 330 µM [1] of 100%.
Compound `COc1cc(/C=C2\SC(=Nc3ccccc3)N([C@@H](CCCN)C(=O)N[C@@H](CC3CNc4ccccc43)C(N)=O)C2=O)cc(OC)c1O` (stereo partly drawn) [compound 90, (S)-5-amino-N-((S)-1-amino-3-(indolin-3-yl)-1-oxopropan-2-yl)-2-((5Z)-5-(4-hydroxy-3,5-dimethoxybenzylidene)-4-oxo-2-(phenylimino)thiazolidin-3-yl)pentanamide] has an inhibition at 3.3 µM [1] of 20%, an inhibition at 33 µM [1] of 22% and an inhibition at 330 µM [1] of 100%.
In the case of `COc1cc(/C=C2\S/C(=N\c3ccccc3)N([C@@H](CCCN)C(=O)N[C@@H](Cc3ccc(-c4ccccc4)cc3)C(N)=O)C2=O)cc(OC)c1O` [compound 91], the “% inhibition of SipA secretion” value ([1]; 3.3 µM) is reported as 100 (330) 66 (33) 3 (3.3) %, the “% inhibition of SipA secretion” value ([1]; 33 µM) is reported as 100 (330) 66 (33) 3 (3.3) % and the “% inhibition of SipA secretion” value ([1]; 330 µM) is reported as 100 (330) 66 (33) 3 (3.3) %.
In the case of `COc1cc(/C=C2\S/C(=N\c3ccccc3)N(C(CCCNC(=N)N)C(=O)N3CSC[C@H]3C(N)=O)C2=O)cc(OC)c1O` (stereo partly drawn) [compound 94, (R)-3-(5-guanidino-2-((2Z,5Z)-5-(4-hydroxy-3,5-dimethoxybenzylidene)-4-oxo-2-(phenylimino)thiazolidin-3-yl)pentanoyl)thiazolidine-4-carboxamide], the inhibition at 3.3 µM [1] is reported as 3%, the inhibition at 33 µM [1] is reported as 7% and the inhibition at 330 µM [1] is reported as 89%.
With `COc1cc(/C=C2\S/C(=N\c3ccccc3)N(C(Cc3ccncc3)C(=O)N[C@@H](CCCNC(=N)N)C(N)=O)C2=O)cc(OC)c1O` (stereo partly drawn) [compound 95, (S)-5-guanidino-2-(2-((2Z,5Z)-5-(4-hydroxy-3,5-dimethoxybenzylidene)-4-oxo-2-(phenylimino)thiazolidin-3-yl)-3-(pyridin-4-yl)propanamido)pentanamide] the inhibition at 33 µM [1] was 8% and the inhibition at 330 µM [1] was 89%.
With `COc1cc(/C=C2\S/C(=N\c3ccccc3)N([C@@H](Cc3ccc(-c4ccccc4)cc3)C(=O)N[C@@H](CCCNC(=N)N)C(N)=O)C2=O)cc(OC)c1O` [compound 96] the “% inhibition of SipA secretion” value ([1]; 3.3 µM) was 100 (330) 95 (33) 54 (3.3) %, the “% inhibition of SipA secretion” value ([1]; 33 µM) was 100 (330) 95 (33) 54 (3.3) % and the “% inhibition of SipA secretion” value ([1]; 330 µM) was 100 (330) 95 (33) 54 (3.3) %.
With `COc1cc(/C=C2\S/C(=N\c3ccccc3)N([C@@H](CC3CNc4ccccc43)C(=O)N[C@@H](CCCNC(=N)N)C(N)=O)C2=O)cc(OC)c1O` (some centres unmarked) [compound 98] the “% inhibition of SipA secretion” value ([1]; 3.3 μM, Western blot) was 2%, the “% inhibition of SipA secretion” value ([1]; 33 μM, Western blot) was 12% and the “% inhibition of SipA secretion” value ([1]; 330 μM, Western blot) was 100%.
